Data as given in PubChem BioAssay AID330 (DTP/NCI, 2004).
Where “and” joins values, the source holds several entries; their conditions need not be identical. Equal values may be shown once. Inconclusive results and toxic doses are left out. Rule for the calls: active = survival T/C of 150% or more; inactive = T/C below 125% in these data.

Test system: P388 leukemia ip, CD2F1 mice, survival T/C
Test: NCI In Vivo Anticancer Drug Screen. Data for tumor model P388 Leukemia (intraperitoneal) in CD2F1 (CDF1) mice
Conditions: endpoint: median survival time, higher = longer survival
Outline: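 Mice carrying the transplanted tumor received test compound or vehicle. Survival was recorded in each group, and the value is the treated-group measurement divided by that of the vehicle-treated control group.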

[1] = dose: 200.0 mg/kg/injection, schedule: Q04DX002 (ip), vehicle: saline with Tween-80
[2] = dose: 60.0 mg/kg/injection, schedule: Q01DX005 (ip), vehicle: saline with Tween-80
[3] = dose: 120.0 mg/kg/injection, schedule: Q01DX005 (ip), vehicle: saline with Tween-80
[4] = dose: 240.0 mg/kg/injection, schedule: Q01DX005 (ip), vehicle: saline with Tween-80
[5] = dose: 50.0 mg/kg/injection, schedule: Q01DX009 (ip), vehicle: saline with Tween-80
[6] = dose: 100.0 mg/kg/injection, schedule: Q01DX009 (ip), vehicle: saline with Tween-80
[7] = dose: 200.0 mg/kg/injection, schedule: Q01DX009 (ip), vehicle: saline with Tween-80
[8] = dose: 50.0 mg/kg/injection, schedule: Q01DX009 (ip), vehicle: Klucel (hydroxypropylcellulose) (HPC)
[9] = dose: 50.0 mg/kg/injection, schedule: Q04DX003 (ip), vehicle: saline with Tween-80
[10] = dose: 100.0 mg/kg/injection, schedule: Q04DX003 (ip), vehicle: saline with Tween-80
[11] = dose: 200.0 mg/kg/injection, schedule: Q04DX003 (ip), vehicle: saline with Tween-80
[12] = dose: 50.0 mg/kg/injection, schedule: Q01DX005 (ip), vehicle: saline with Tween-80
[13] = dose: 100.0 mg/kg/injection, schedule: Q01DX005 (ip), vehicle: saline with Tween-80
[14] = dose: 200.0 mg/kg/injection, schedule: Q01DX005 (ip), vehicle: saline with Tween-80
[15] = dose: 25.0 mg/kg/injection, schedule: Q01DX009 (ip), vehicle: saline

Measured: T/C

CCCN(CCC)c1ncnc2[nH]ncc12
inactive: dose: 50.0 mg/kg/injection, schedule: Q01DX005 (ip), vehicle: saline 92 % of control | dose: 100.0 mg/kg/injection, schedule: Q01DX005 (ip), vehicle: saline 92 % of control

CC(C)C12OC1C1OC13C1(C)CCC(O)CC1CC1OC13C2O (stereo not given)
inactive: dose: 0.03 mg/kg/injection, schedule: Q01DX009 (ip), vehicle: saline + alcohol 103 % of control and 101 % of control and 111 % of control | dose: 0.06 mg/kg/injection, schedule: Q01DX009 (ip), vehicle: saline + alcohol 102 % of control and 111 % of control | dose: 0.12 mg/kg/injection, schedule: Q01DX009 (ip), vehicle: saline + alcohol 115 % of control and 109 % of control and 107 % of control | dose: 0.25 mg/kg/injection, schedule: Q01DX009 (ip), vehicle: saline + alcohol 111 % of control and 106 % of control and 117 % of control | dose: 0.5 mg/kg/injection, schedule: Q01DX009 (ip), vehicle: saline + alcohol 115 % of control and 109 % of control | dose: 1.0 mg/kg/injection, schedule: Q01DX009 (ip), vehicle: saline + alcohol 109 % of control and 115 % of control | dose: 2.0 mg/kg/injection, schedule: Q01DX009 (ip), vehicle: saline + alcohol 111 % of control and 103 % of control and 106 % of control | dose: 4.0 mg/kg/injection, schedule: Q01DX009 (ip), vehicle: saline + alcohol 103 % of control and 100 % of control | dose: 8.0 mg/kg/injection, schedule: Q01DX009 (ip), vehicle: saline + alcohol 103 % of control and 100 % of control | dose: 16.0 mg/kg/injection, schedule: Q01DX009 (ip), vehicle: saline + alcohol 102 % of control and 103 % of control

NNc1ncnc2c1ccn2C1OC(CO)C(O)C1O (stereo not given)
inactive: dose: 6.25 mg/kg/injection, schedule: Q01DX009 (ip), vehicle: saline with Tween-80 108 % of control | dose: 12.5 mg/kg/injection, schedule: Q01DX009 (ip), vehicle: saline with Tween-80 113 % of control | dose: 37.5 mg/kg/injection, schedule: Q01DX009 (ip), vehicle: saline with Tween-80 118 % of control

Cc1nnc2c(NO)nccn12
inactive: dose: 75.0 mg/kg/injection, schedule: Q01DX001 (ip), vehicle: saline 99 % of control | dose: 150.0 mg/kg/injection, schedule: Q01DX001 (ip), vehicle: saline 101 % of control | dose: 300.0 mg/kg/injection, schedule: Q01DX001 (ip), vehicle: saline 96 % of control

COc1ccc(N=Nc2ccc(N)c3cccnc23)c(OC)c1
inactive: dose: 100.0 mg/kg/injection, schedule: Q04DX002 (ip), vehicle: saline with Tween-80 97 % of control | [1] 106 % of control | dose: 400.0 mg/kg/injection, schedule: Q04DX002 (ip), vehicle: saline with Tween-80 92 % of control

CC(=O)N1C(=O)C2(Nc3cc4ccccc4cc3N2)c2ccccc21
inactive: [2] 94 % of control | [3] 93 % of control | [4] 92 % of control

CCOC(=O)C1C/C(=N\OC(C)=O)c2ccc(OC)c(OC)c2C1 (stereo not given)
inactive: dose: 12.5 mg/kg/injection, schedule: Q01DX009 (ip), vehicle: other 110 % of control | dose: 25.0 mg/kg/injection, schedule: Q01DX009 (ip), vehicle: other 101 % of control | dose: 50.0 mg/kg/injection, schedule: Q01DX009 (ip), vehicle: other 98 % of control | dose: 100.0 mg/kg/injection, schedule: Q01DX009 (ip), vehicle: other 87 % of control | dose: 200.0 mg/kg/injection, schedule: Q01DX009 (ip), vehicle: other 88 % of control

CC(=O)n1c2ccccc2c2c(C)c3c[n+]([O-])ccc3c(C)c21
inactive: dose: 12.5 mg/kg/injection, schedule: Q04DX002 (ip), vehicle: saline with Tween-80 100 % of control | dose: 25.0 mg/kg/injection, schedule: Q04DX002 (ip), vehicle: saline with Tween-80 110 % of control | dose: 50.0 mg/kg/injection, schedule: Q04DX002 (ip), vehicle: saline with Tween-80 122 % of control | [1] 93 % of control

Cc1ccccc1N1CCN(C(=O)c2nc3ccccc3[nH]2)CC1
inactive: dose: 50.0 mg/kg/injection, schedule: Q01DX005 (ip), vehicle: Klucel (hydroxypropylcellulose) (HPC) 91 % of control | dose: 100.0 mg/kg/injection, schedule: Q01DX005 (ip), vehicle: Klucel (hydroxypropylcellulose) (HPC) 87 % of control | dose: 200.0 mg/kg/injection, schedule: Q01DX005 (ip), vehicle: Klucel (hydroxypropylcellulose) (HPC) 101 % of control

O=C(/C=C/c1cccc([N+](=O)[O-])c1)Nc1cccc(S(=O)(=O)F)c1
inactive: [2] 102 % of control | [3] 93 % of control | [4] 91 % of control

O=C(CCl)OCCN1Cc2nc3sc4c(c3c(=O)n2CC1=O)CCCC4
inactive: [5] 97 % of control | [6] 94 % of control | [7] 112 % of control

[N-]=[N+]=C1N=CN=C1c1ncn[nH]1
active: dose: 12.5 mg/kg/injection, schedule: Q01DX009 (ip), vehicle: Klucel (hydroxypropylcellulose) (HPC) 150 % of control | dose: 25.0 mg/kg/injection, schedule: Q01DX009 (ip), vehicle: Klucel (hydroxypropylcellulose) (HPC) 155 % of control | [8] 160 % of control
inactive: dose: 3.12 mg/kg/injection, schedule: Q01DX009 (ip), vehicle: Klucel (hydroxypropylcellulose) (HPC) 113 % of control

CC(=O)Nc1ccc(S(=O)(=O)Nc2ccc(O)c3ccccc23)cc1
inactive: [9] 88 % of control | [10] 90 % of control | [11] 100 % of control | dose: 400.0 mg/kg/injection, schedule: Q04DX003 (ip), vehicle: saline with Tween-80 117 % of control

C[C@]12CCC(=O)C(O)=C1CC[C@@H]1[C@@H]2CC[C@@]2(C)[C@H]1CC[C@]2(C)O
inactive: dose: 25.0 mg/kg/injection, schedule: Q01DX009 (ip), vehicle: saline with Tween-80 92 % of control | dose: 25.0 mg/kg/injection, schedule: Q04DX003 (ip), vehicle: saline with Tween-80 100 % of control | [5] 100 % of control | [9] 105 % of control | [6] 98 % of control | [10] 101 % of control | [7] 101 % of control | [11] 105 % of control

O=C(NCCNC(=O)c1cccnc1)c1cccnc1
inactive: [12] 118 % of control | [13] 108 % of control | [14] 111 % of control

C(=C\c1ccco1)/c1ccnnc1
inactive: dose: 12.5 mg/kg/injection, schedule: Q01DX009 (ip), vehicle: saline 97 % of control | [15] 109 % of control | dose: 50.0 mg/kg/injection, schedule: Q01DX009 (ip), vehicle: saline 108 % of control and 97 % of control

O=C1C2=C(Nc3ccccc3N2)OC1c1ccccc1O (stereo not given)
inactive: dose: 60.0 mg/kg/injection, schedule: Q01DX005 (ip), vehicle: Klucel (hydroxypropylcellulose) (HPC) 98 % of control | dose: 120.0 mg/kg/injection, schedule: Q01DX005 (ip), vehicle: Klucel (hydroxypropylcellulose) (HPC) 91 % of control | dose: 240.0 mg/kg/injection, schedule: Q01DX005 (ip), vehicle: Klucel (hydroxypropylcellulose) (HPC) 91 % of control

COc1cc(OC)c(C(=O)O)cc1Cl
inactive: dose: 100.0 mg/kg/injection, schedule: Q04DX003 (ip), vehicle: Klucel (hydroxypropylcellulose) (HPC) 100 % of control | dose: 200.0 mg/kg/injection, schedule: Q04DX003 (ip), vehicle: Klucel (hydroxypropylcellulose) (HPC) 101 % of control | dose: 400.0 mg/kg/injection, schedule: Q04DX003 (ip), vehicle: Klucel (hydroxypropylcellulose) (HPC) 100 % of control

Cc1cc(=O)n(C)c2ccc([N+](=O)[O-])cc12
inactive: [8] 106 % of control | dose: 100.0 mg/kg/injection, schedule: Q01DX009 (ip), vehicle: Klucel (hydroxypropylcellulose) (HPC) 108 % of control | dose: 200.0 mg/kg/injection, schedule: Q01DX009 (ip), vehicle: Klucel (hydroxypropylcellulose) (HPC) 108 % of control

CC(=O)N1c2ccccc2Oc2ccc3ccccc3c21
inactive: [12] 104 % of control | [13] 100 % of control | [14] 97 % of control

S=P(N1CC1)(N1CC1)N1CC1.[Cl-].[Cl-].[NH2-].[NH2-].[Pt+4]
inactive: dose: 0.78 mg/kg/injection, schedule: Q01DX009 (ip), vehicle: saline 104 % of control | dose: 1.56 mg/kg/injection, schedule: Q01DX009 (ip), vehicle: saline 113 % of control and 101 % of control | [15] 88 % of control
active: dose: 6.25 mg/kg/injection, schedule: Q01DX009 (ip), vehicle: saline 178 % of control and 150 % of control and 166 % of control

CCC(C)(C)N=C(NC(=O)C(F)(F)F)Nc1cccnc1
inactive: [10] 93 % of control | [11] 94 % of control

Nc1ccc(Cn2ccnn2)cc1
inactive: [2] 100 % of control | [3] 95 % of control | [4] 101 % of control
